# Experimental data taken from PMC8482815, “Targeting Host Glycolysis as a Strategy for Antimalarial Development” (Frontiers in Cellular and Infection Microbiology, 2021).
# Values joined by “and” are separate entries in the source; they are usually repeats but may differ in a detail not shown here. Equal entries are not always repeated.
# System: human erythrocytes
# Assay: Untargeted metabolomics and 13C-glucose tracing of enolase inhibitor treated erythrocytes
# Format: cell-based
# Conditions: 1h
# Description: Freshly collected erythrocytes were washed, resuspended to 10% hematocrit in buffer [25mM HEPES (pH 7.4), 120mM NaCl, 5.4mM KCl, 1.8mM CaCl2, and 1mM NaH2PO4], incubated for 1 hour at 37°C, then centrifuged at 2000xg for 5 minutes at 4°C, resuspended in fresh wash buffer to 30-40% hematocrit, and split into 210µL aliquots of packed erythrocytes. […] All samples were incubated at 37°C shaking at 500 RPM. Triplicate samples of supernatants and packed erythrocytes were collected at 0, 0.5, 1, and 6-hour intervals and snap-frozen in liquid N2.
# RBC and media samples were extracted at 1:10 and 1:20 dilutions, respectively, in 5:3:2 MeOH : MeCN:H2O v/v/v, and supernatants analyzed on a Thermo Vanquish UHPLC coupled to a Thermo Q Exactive mass spectrometer, as extensively described ([Nemkov et al., 2015]; [Nemkov et al., 2017]). The extraction buffer was supplemented with 40uM 3-^13C lactate to allow absolute quantification of lactate isotopologues, including lactate generated via glycolysis ([1,2,3-^13C3] enriched) vs. the pentose phosphate pathway ([2,3-^13C2] enriched), as described ([Reisz et al., 2016]). Metabolite assignments, peak area integration and isotopologues distributions were determined using Maven (Princeton University) ([Nemkov et al., 2015]; [Nemkov et al., 2017]).
# Data were auto-scaled and normalized to zero-hour time points. Metabolites were removed from the dataset if greater than 50% of the samples contained missing values or the relative standard deviation among replicates exceeded 25%. Additionally, data was filtered using the interquartile range to reduce near-constant values from the experiment by 5%.
# A principal component analysis of preprocessed data was plotted with the 95% confidence interval minimum volume enclosing ellipsoid for each respective group (MetaboAnalyst, cluster, plotly). A two-way repeated measures analysis of variance (ANOVA) was performed with multiple comparisons corrected for using a false discovery rate p-value cutoff of 0.05. Metabolite-Pathway analysis was performed using the R package of MetaboAnalyst, as previously described ([Xia and Wishart, 2010]). Metabolite-Protein nodal analysis was performed using omicsnet.ca and as previously described ([Zhou and Xia, 2018]).
# [1] = treated erythrocytes, one value per replicate sample, polarity +
# [2] = treated erythrocytes, one value per replicate sample, polarity -
# [3] = treated erythrocytes, replicate samples
smiles,measurement,setting,value
CC(C)(C)C(=O)OCOP(=O)(OCOC(=O)C(C)(C)C)C1CC(O)N(O)C1=O (stereo not shown) [POMSF],AMP level (metabolomics signal),replicate samples,2.14E+06 and 1.66E+06 and 1.77E+06
same,ATP level (metabolomics signal),replicate samples,1.57E+04 and 2.82E+04 and 2.26E+04
same,Adenine level (metabolomics signal),replicate samples,1.34E+05 and 1.22E+05 and 1.52E+05
same,Cytosine level (metabolomics signal),replicate samples,3.68E+05 and 3.33E+05 and 3.22E+05
same,L-alanine level (metabolomics signal),replicate samples,8.35E+06 and 9.14E+06 and 1.12E+07
same,L-arginine level (metabolomics signal),replicate samples,1.02E+07 and 1.01E+07 and 0.00E+00
same,L-asparagine level (metabolomics signal),replicate samples,7.51E+06 and 6.72E+06 and 7.84E+06
same,L-aspartate level (metabolomics signal),replicate samples,3.12E+07 and 3.26E+07 and 2.90E+07
same,L-cysteine level (metabolomics signal),replicate samples,1.80E+06 and 1.83E+06 and 5.70E+05
same,L-glutamate level (metabolomics signal),replicate samples,3.18E+07 and 2.68E+07 and 2.49E+07
same,L-glutamine level (metabolomics signal),replicate samples,8.50E+07 and 9.01E+07 and 8.26E+07
same,L-histidine level (metabolomics signal),replicate samples,1.59E+06 and 1.54E+06 and 1.57E+06
same,L-isoleucine level (metabolomics signal),replicate samples,1.27E+07 and 1.24E+07 and 1.09E+07
same,L-leucine level (metabolomics signal),replicate samples,2.27E+08 and 2.54E+08 and 2.31E+08
same,L-lysine level (metabolomics signal),replicate samples,2.40E+06 and 2.03E+06 and 1.89E+06
same,L-methionine level (metabolomics signal),replicate samples,2.24E+07 and 2.35E+07 and 2.22E+07
same,L-phenylalanine level (metabolomics signal),replicate samples,1.58E+07 and 1.49E+07 and 1.43E+07
same,L-proline level (metabolomics signal),replicate samples,6.58E+07 and 5.90E+07 and 5.39E+07
same,L-serine level (metabolomics signal),replicate samples,4.64E+06 and 5.26E+06 and 6.00E+06
same,L-threonine level (metabolomics signal),replicate samples,8.46E+06 and 8.55E+06 and 8.85E+06
same,L-tryptophan level (metabolomics signal),replicate samples,5.00E+06 and 4.41E+06 and 4.35E+06
same,L-tyrosine level (metabolomics signal),replicate samples,2.58E+07 and 2.87E+07 and 2.75E+07
same,L-valine level (metabolomics signal),replicate samples,1.53E+08 and 1.47E+08 and 1.51E+08
same,dCMP level (metabolomics signal),replicate samples,1.51E+04 and 1.42E+04 and 1.15E+04
same,dTMP level (metabolomics signal),replicate samples,1.28E+06 and 1.27E+06 and 1.22E+06
same,glycine level (metabolomics signal),replicate samples,1.77E+06 and 2.28E+06 and 2.53E+06
same,N-Acyl-D-aspartate (C06380) metabolite signal,[1],1.57E+05 and 1.16E+05 and 1.31E+05
same,Poly-gamma-D-glutamate (C05723) metabolite signal,[1],5.78E+07 and 6.19E+07 and 5.54E+07
same,D-Ribitol 5-phosphate (C01068) metabolite signal,[2],2.08E+04 and 2.67E+04 and 2.32E+04
same,"D-glucono-1,5-lactone (C00198) metabolite signal",[2],3.06E+05 and 3.20E+05 and 3.38E+05
same,L-Noradrenaline (C00547) metabolite signal,[2],3.16E+04 and 3.80E+04 and 3.20E+04
same,Oxalosuccinate (C05379) metabolite signal,[2],9.37E+04 and 1.04E+05 and 9.63E+04
same,Pyridoxamine (C00534) metabolite signal,[2],1.68E+04 and 1.54E+04 and 2.58E+04
same,Thioredoxin disulfide (C00343) metabolite signal,[2],5.72E+04 and 1.02E+05 and 5.14E+04
same,1-4-beta-D-Xylan (metabolite signal),[3],1.97E+05 and 1.92E+05 and 2.09E+05
same,2-Hydroxyglutarate/Citramalate (C02630) metabolite signal,[3],7.86E+04 and 5.69E+04 and 5.61E+04
same,5-6-Dihydrothymine (C00906) metabolite signal,[3],2.50E+05 and 2.77E+05 and 2.96E+05
same,5-10-Methenyltetrahydrofolate (metabolite signal),[3],1.06E+05 (2×) and 7.96E+04
same,5-Hydroxyisourate (C11821) metabolite signal,[3],1.50E+06 and 2.10E+06 and 4.21E+06
same,5-L-Glutamyl-taurine (metabolite signal),[3],1.11E+05 and 1.18E+05 and 1.16E+05
same,5-Oxoproline (metabolite signal),[3],8.27E+05 and 7.57E+05 and 7.14E+05
same,(S)(+)-Allantoin (C02350) metabolite signal,[3],1.72E+04 and 1.57E+04 and 2.62E+04
same,Allantoate (C00499) metabolite signal,[3],6.65E+05 and 5.04E+05 and 3.15E+05
same,Ascorbate (metabolite signal),[3],1.17E+05 and 8.53E+04 and 8.00E+04
same,CMP-N-acetylneuraminate (metabolite signal),[3],1.67E+04 and 8.29E+03 and 7.76E+03
same,Carnosine (metabolite signal),[3],1.06E+05 and 9.45E+04 and 2.03E+05
same,Citrate (C00158) metabolite signal,[3],4.35E+04 and 3.82E+04 and 3.29E+04
same,Creatine (metabolite signal),[3],2.46E+08 and 2.26E+08 and 2.23E+08
same,Creatinine (metabolite signal),[3],2.77E+06 and 2.62E+06 and 2.87E+06
same,Cys-Gly (metabolite signal),[3],2.32E+06 and 2.14E+06 and 1.32E+06
same,D-Glucosamine (metabolite signal),[3],2.29E+05 and 1.27E+05 and 2.04E+05
same,D-Glucose (C00031) metabolite signal,[3],5.29E+06 and 5.04E+06 and 5.14E+06
same,D-Ribose (C00121) metabolite signal,[3],1.64E+05 and 1.19E+05 and 1.18E+05
same,Dehydroascorbate (metabolite signal),[3],6.32E+04 and 5.87E+04 and 4.12E+04
same,Dihydrofolate (metabolite signal),[3],3.00E+06 and 2.07E+06 and 9.85E+05
same,Dimethylglycine (metabolite signal),[3],8.86E+05 and 1.02E+06 and 8.96E+05
same,Diphosphate (C00013) metabolite signal,[3],2.94E+04 and 3.31E+04 and 1.77E+04
same,Fumarate (C00122) metabolite signal,[3],1.04E+05 and 8.86E+04 and 8.87E+04
same,Glutathione (C00051) metabolite signal,[3],1.54E+08 and 1.50E+08 and 9.17E+07
same,Glutathione disulfide (metabolite signal),[3],1.48E+05 and 9.64E+04 and 9.50E+04
same,Hypoxanthine (C00262) metabolite signal,[3],3.21E+04 and 1.66E+04 and 8.15E+03
same,IMP (C00130) metabolite signal,[3],1.58E+05 and 9.80E+04 and 1.96E+05
same,Inosine (C00294) metabolite signal,[3],6.71E+04 and 6.29E+04 and 6.63E+04
same,L-Citrulline (metabolite signal),[3],2.74E+06 and 3.23E+06 and 3.99E+06
same,L-Homoserine (metabolite signal),[3],2.34E+05 and 2.10E+05 and 2.35E+05
same,Lactate (C01432) metabolite signal,[3],9.22E+06 and 8.76E+06 and 8.98E+06
same,Malate (C00149) metabolite signal,[3],1.55E+05 and 1.07E+05 and 9.91E+04
same,Mannitol (C00392) metabolite signal,[3],1.01E+05 and 9.53E+04 and 1.38E+05
same,N-Acetylneuraminate (metabolite signal),[3],2.25E+04 and 1.68E+04 and 2.38E+04
same,N-Glycoloyl-neuraminate (metabolite signal),[3],1.23E+05 and 1.51E+05 and 1.32E+05
same,NAD+ (C00003) metabolite signal,[3],8.73E+04 and 4.11E+04 and 4.40E+04
same,Nicotinamide (C00153) metabolite signal,[3],3.46E+07 and 3.78E+07 and 4.86E+07
same,Ornithine (metabolite signal),[3],1.57E+06 (2×) and 1.55E+06
same,Oxaloacetate (C00036) metabolite signal,[3],5.69E+04 and 5.42E+04 and 4.38E+04
same,Phosphoserine (metabolite signal),[3],0.00E+00 (2×) and 3.46E+04
same,Putrescine (metabolite signal),[3],4.96E+04 and 2.87E+04 and 4.23E+04
same,Pyridoxal (C00250) metabolite signal,[3],5.84E+04 and 5.75E+04 and 6.92E+04
same,Pyruvate (C00022) metabolite signal,[3],9.01E+05 and 7.95E+05 and 8.15E+05
same,S-Glutathionyl-L-cysteine (metabolite signal),[3],1.18E+05 and 8.54E+04 and 7.69E+04
same,Sedoheptulose 1-phosphate (C06222) metabolite signal,[3],1.59E+04 and 1.93E+04 and 8.80E+03
same,Spermidine (metabolite signal),[3],8.37E+06 and 7.92E+06 and 6.82E+06
same,Spermine (metabolite signal),[3],1.09E+07 and 1.10E+07 and 8.00E+06
same,Succinate (C00042) metabolite signal,[3],7.45E+04 and 8.48E+04 and 5.74E+04
same,Thymidine (C00214) metabolite signal,[3],1.11E+04 and 1.24E+04 and 8.29E+03
same,UDP (C00015) metabolite signal,[3],2.25E+05 and 1.89E+05 and 1.40E+05
same,UDP-N-acetyl-D-glucosamine (metabolite signal),[3],1.24E+04 and 7.59E+03 and 4.65E+03
same,UDP-glucose (C00029) metabolite signal,[3],2.38E+04 and 1.72E+04 and 9.18E+03
same,Urate (C00366) metabolite signal,[3],3.27E+04 and 2.94E+04 and 2.46E+04
same,Xanthine (C00385) metabolite signal,[3],2.31E+05 and 1.91E+05 and 1.90E+05
same,alpha-D-Glucosamine 1-phosphate (metabolite signal),[3],4.45E+05 and 6.15E+05 and 8.58E+05
same,alpha-D-Ribose 1-phosphate (C00620) metabolite signal,[3],6.39E+04 and 6.67E+04 and 4.32E+04
same,gamma-Glutamyl-gamma-aminobutyrate (metabolite signal),[3],7.63E+04 and 8.93E+04 and 1.06E+05
same,gamma-L-Glutamyl-D-alanine (metabolite signal),[3],4.26E+04 and 3.07E+04 and 3.12E+04
same,gamma-L-Glutamyl-L-cysteine (metabolite signal),[3],3.96E+04 and 5.76E+04 and 1.90E+04
